Experimental data reported in patent US12662491B2 (Redona Therapeutics, Inc., priority 2020, dated 2026).

Target: T1, Zcchc11 enzyme (Homo sapiens, UniProt Q5TAX3)
T1 construct: made in house; host or cells: HEK293 cells (Zcchc11); E. coli Rosetta II (LIN28A)
T1 sequence (Q5TAX3 212-1420): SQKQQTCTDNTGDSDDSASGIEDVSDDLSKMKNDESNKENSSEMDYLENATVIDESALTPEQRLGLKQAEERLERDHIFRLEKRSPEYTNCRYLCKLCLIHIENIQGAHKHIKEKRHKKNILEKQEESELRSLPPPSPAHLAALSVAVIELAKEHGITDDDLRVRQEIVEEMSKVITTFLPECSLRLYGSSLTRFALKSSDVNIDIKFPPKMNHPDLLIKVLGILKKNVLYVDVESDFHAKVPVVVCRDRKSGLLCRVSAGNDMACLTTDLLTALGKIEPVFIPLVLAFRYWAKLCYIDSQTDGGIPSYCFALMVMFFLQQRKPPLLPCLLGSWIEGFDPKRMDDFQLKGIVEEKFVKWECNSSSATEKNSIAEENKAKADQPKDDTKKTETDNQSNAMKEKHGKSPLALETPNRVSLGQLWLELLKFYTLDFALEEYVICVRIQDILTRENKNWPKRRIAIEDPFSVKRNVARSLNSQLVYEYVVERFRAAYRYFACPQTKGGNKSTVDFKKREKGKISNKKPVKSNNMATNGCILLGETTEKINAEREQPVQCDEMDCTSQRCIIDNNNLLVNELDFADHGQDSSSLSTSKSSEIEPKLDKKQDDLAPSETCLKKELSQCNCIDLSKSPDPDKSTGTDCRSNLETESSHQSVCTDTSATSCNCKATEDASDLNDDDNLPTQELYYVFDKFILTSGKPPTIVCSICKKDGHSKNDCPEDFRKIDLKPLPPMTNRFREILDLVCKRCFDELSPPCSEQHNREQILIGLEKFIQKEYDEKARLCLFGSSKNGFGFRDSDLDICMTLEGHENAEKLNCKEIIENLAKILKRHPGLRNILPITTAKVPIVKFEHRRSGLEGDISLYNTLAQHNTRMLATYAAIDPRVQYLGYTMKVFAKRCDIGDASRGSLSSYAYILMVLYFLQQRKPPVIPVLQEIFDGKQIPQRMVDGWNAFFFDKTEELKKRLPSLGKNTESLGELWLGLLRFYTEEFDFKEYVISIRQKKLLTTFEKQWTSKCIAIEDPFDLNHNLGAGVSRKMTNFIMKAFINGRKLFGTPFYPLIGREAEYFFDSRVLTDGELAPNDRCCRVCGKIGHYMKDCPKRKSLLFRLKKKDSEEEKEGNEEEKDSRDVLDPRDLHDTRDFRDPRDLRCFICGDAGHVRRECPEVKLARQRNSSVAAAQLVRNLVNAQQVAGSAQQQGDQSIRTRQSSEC
Assay: TUTase assay (Zcchc11 assay, Lin28a-dependent polyuridylation of pre-let-7)
Assay type: biochemical
Settings: Lin28a-dependent Zcchc11 (Z11) TUTase assay; read-out: Potency Lin28a-dep Z11 IC50
In short: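 HEK293-expressed human Zcchc11 (residues 212-1420, 0.2 nM) with 10 nM LIN28A and 2 nM 5′-fluorescein pre-let-7, preincubated 30 min at room temperature, pH 7.3. Started with 5 uM UTP; poly(U) tails quenched by 3′-rhodamine A20 probe, read kinetically. IC50 from early-rate four-parameter fit; no-UTP wells define 0%.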

Row | SMILES | IC50 [µM]
1 | CS(=O)(=O)NC1CCC(n2cc(C(=O)O)c(=O)c3cc(F)c(N4CCC[C@@H]4COc4ccccn4)cc32)CC1 (stereo partly drawn) [Example 360, (R)-6-fluoro-1-(4-(methyl-sulfonamido)cyclo-hexyl)-4-oxo-7-(2-((pyridin-2-yloxy)methyl)pyrrolidin-1-yl)-1,4-dihydro-quinoline-3-carboxylic acid] | 1 to 10
2 | CC1(n2cc(C(=O)O)c(=O)c3cc(F)c(N4CCC[C@@H]4COc4ccccn4)cc32)CC1 [Example 361, (R)-6-fluoro-1-(1-methylcyclo-propyl)-4-oxo-7-(2-((pyridin-2-yloxy)methyl)pyrrolidin-1-yl)-1,4-dihydroquinoline-3-carboxylic acid] | ≤ 1
3 | Cc1cccnc1OC[C@H]1CCCN1c1cc2c(cc1F)c(=O)c(C(=O)O)cn2C1CC(O)C1 (stereo partly drawn) [Example 362, (R)-6-fluoro-1-(3-hydroxycyclo-butyl)-7-(2-(((3-methylpyridin-2-yl)oxy)methyl)pyrrolidin-1-yl)-4-oxo-1,4-dihydroquinoline-3-carboxylic acid] | ≤ 1
4 | CC1(n2cc(C(=O)O)c(=O)c3cc(F)c(N4CCC[C@@H]4COc4ccccn4)cc32)CCC1 [Example 363, (R)-6-fluoro-1-(1-methylcyclo-butyl)-4-oxo-7-(2-((pyridin-2-yloxy)methyl)pyrrolidin-1-yl)-1,4-dihydro-quinoline-3-carboxylic acid] | 1 to 10
5 | O=C(O)c1cn(-c2cnc(O)cn2)c2cc(N3CCC[C@@H]3COc3ncccc3Cl)c(Cl)cc2c1=O [Example 364, 6-Chloro-7-[(2R)-2-{[(3-chloropyridin-2-yl)oxy]methyl}pyrrolidin-1-yl]-1-(5-hydroxy-pyrazin-2-yl)-4-oxo-1,4-dihydroquinoline-3-carboxylic acid] | ≤ 1
6 | Cc1cccnc1OC[C@H]1CCCN1c1cc2c(cc1Br)c(=O)c(C(=O)O)cn2C1(C)CC1 [Example 365, 6-Bromo-1-(1-methylcyclo-propyl)-7-[(2R)-2-{[(3-methyl-pyridin-2-yl)oxy]methyl}pyrrolidin-1-yl]-4-oxo-1,4-dihydroquinoline-3-carboxylic acid] | 1 to 10
7 | Cc1cccnc1OC[C@H]1CCCN1c1cc2c(cc1Cl)c(=O)c(C(=O)O)cn2C1CNC1 [Example 366, 1-(Azetidin-3-yl)-6-chloro-7-[(2R)-2-{[(3-methyl-pyridin-2-yl)oxy]methyl}pyrrolidin-1-yl]-4-oxo-1,4-dihydroquinoline-3-carboxylic acid] | 1 to 10
8 | O=C(O)c1cn(C2CCNC2)c2cc(N3CCC[C@@H]3COc3ncccc3Cl)c(Cl)cc2c1=O (stereo partly drawn) [Example 367, 6-chloro-7-[(2R)-2-{[(3-chloro-pyridin-2-yl)oxy)methyl}pyrrolidin-1-yl]-4-oxo-1-(pyrrolidin-3-yl)-1,4-dihydroquinoline-3-carboxylic acid] | 1 to 10
9 | O=C(O)c1cn(C2CCNCC2)c2cc(N3CCC[C@@H]3COc3ncccc3Cl)c(Cl)cc2c1=O [Example 368, 6-chloro-7-[(2R)-2-{[(3-chloropyridin-2-yl)oxy]methyl}pyrrolidin-1-yl]-4-oxo-1-(piperidin-4-yl)-1,4-dihydroquinoline-3-carboxylic acid] | 1 to 10
10 | O=C(O)c1cn(C2CC3(CNC3)C2)c2cc(N3CCC[C@@H]3COc3ncccc3Cl)c(Cl)cc2c1=O [Example 369, 1-{2-Azaspiro[3.3]heptan-6-yl}-6-chloro-7-[(2R)-2-{[(3-chloropyridin-2-yl)oxy]methyl}pyrrolidin-1-yl]-4-oxo-1,4-dihydroquinoline-3-carboxylic acid] | 1 to 10
11 | CC(=O)Nc1ccc(-n2cc(C(=O)O)c(=O)c3cc(F)c(N4CCC[C@@H]4COc4ccccn4)cc32)cc1 [Example 370, (R)-1-(4-acetamidophenyl)-6-fluoro-4-oxo-7-(2-((pyridin-2-yloxy)methyl)pyrrolidin-1-yl)-1,4-dihydro-quinoline-3-carboxylic acid] | ≤ 1
12 | CS(=O)(=O)Nc1ccc(-n2cc(C(=O)O)c(=O)c3cc(F)c(N4CCC[C@@H]4COc4ccccn4)cc32)cc1 [Example 371, (R)-6-fluoro-1-(4-(methyl-sulfonamido)phenyl)-4-oxo-7-(2-((pyridin-2-yloxy)methyl)pyrrolidin-1-yl)-1,4-dihydro-quinoline-3-carboxylic acid] | ≤ 1
13 | O=C(O)c1cn(-c2ccc(CO)cc2)c2cc(N3CCC[C@@H]3COc3ccccn3)c(F)cc2c1=O [Example 372, (R)-6-fluoro-1-(4-(hydroxymethyl)phenyl)-4-oxo-7-(2-((pyridin-2-yloxy)methyl)pyrrolidin-1-yl)-1,4-dihydroquinoline-3-carboxylic acid] | ≤ 1
14 | O=C(O)c1cn(-c2ccccc2F)c2cc(N3CCC[C@@H]3COc3ccccn3)c(F)cc2c1=O [Example 373, (R)-6-fluoro-1-(2-fluorophenyl)-4-oxo-7-(2-((pyridin-2-yloxy)methyl)pyrrolidin-1-yl)-1,4-dihydroquinoline-3-carboxylic acid] | 1 to 10
15 | O=C(O)c1cn(-c2ccc(CO)cc2F)c2cc(N3CCC[C@@H]3COc3ccccn3)c(F)cc2c1=O [Example 374, (R)-6-fluoro-1-(2-fluoro-4-(hydroxymethyl)phenyl)-4-oxo-7-(2-((pyridin-2-yloxy)methyl)pyrrolidin-1-yl)-1,4-dihydroquinoline-3-carboxylic acid] | ≤ 1
16 | O=C(O)c1cn(-c2cccc(F)c2)c2cc(N3CCC[C@@H]3COc3ccccn3)c(F)cc2c1=O [Example 375, (R)-6-fluoro-1-(3-fluorophenyl)-4-oxo-7-(2-((pyridin-2-yloxy)methyl)pyrrolidin-1-yl)-1,4-dihydroquinoline-3-carboxylic acid] | 1 to 10
17 | O=C(O)c1cn(-c2cccc(F)c2F)c2cc(N3CCC[C@@H]3COc3ccccn3)c(F)cc2c1=O [Example 376, (R)-1-(2,3-difluorophenyl)-6-fluoro-4-oxo-7-(2-((pyridin-2-yloxy)methyl)pyrrolidin-1-yl)-1,4-dihydroquinoline-3-carboxylic acid] | 1 to 10
18 | O=C(O)c1cn(-c2ccc(Cl)cc2)c2cc(N3CCC[C@@H]3COc3ccccn3)c(F)cc2c1=O [Example 377, (R)-1-(4-chlorophenyl)-6-fluoro-4-oxo-7-(2-((pyridin-2-yloxy)methyl)pyrrolidin-1-yl)-1,4-dihydroquinoline-3-carboxylic acid] | ≤ 1
19 | O=C(O)c1cn(-c2ccc(F)cc2)c2cc(N3CCC[C@@H]3COc3ccccn3)c(F)cc2c1=O [Example 378, (R)-6-fluoro-1-(4-fluorophenyl)-4-oxo-7-(2-((pyridin-2-yloxy)methyl)pyrrolidin-1-yl)-1,4-dihydroquinoline-3-carboxylic acid] | ≤ 1
20 | O=C(O)c1cn(-c2ccc(F)c(F)c2)c2cc(N3CCC[C@@H]3COc3ccccn3)c(F)cc2c1=O [Example 379, (R)-1-(3,4-difluorophenyl)-6-fluoro-4-oxo-7-(2-((pyridin-2-yloxy)methyl)pyrrolidin-1-yl)-1,4-dihydroquinoline-3-carboxylic acid] | 1 to 10
21 | O=C(O)c1cn(-c2ccc(F)cn2)c2cc(N3CCC[C@@H]3COc3ccccn3)c(F)cc2c1=O [Example 380, (R)-6-fluoro-1-(5-fluoropyridin-2-yl)-4-oxo-7-(2-((pyridin-2-yloxy)methyl)pyrrolidin-1-yl)-1,4-dihydroquinoline-3-carboxylic acid] | 1 to 10
22 | O=C(O)c1cn(-c2ccc(O)cc2F)c2cc(N3CCC[C@@H]3COc3ccccn3)c(F)cc2c1=O [Example 381, (R)-6-fluoro-1-(2-fluoro-4-hydroxyphenyl)-4-oxo-7-(2-((pyridin-2-yloxy)methyl)pyrrolidin-1-yl)-1,4-dihydroquinoline-3-carboxylic acid] | 1 to 10
23 | O=C(O)c1cn(-c2ccc(O)cc2)c2cc(N3CCC[C@@H]3COc3ccccn3)c(F)cc2c1=O [Example 382, (R)-6-fluoro-1-(4-hydroxyphenyl)-4-oxo-7-(2-((pyridin-2-yloxy)methyl)pyrrolidin-1-yl)-1,4-dihydroquinoline 3-carboxylic acid] | ≤ 1
